Results taken from patent US8268815B2, “Pyrimidine compounds and use thereof” (Abbott GmbH & Co. KG, priority 2004, dated 2012).

Legend:
[1] = molecular target: T1, human dopamine D3 receptors (Homo sapiens, UniProt P35462); test: Dopamine D3 receptor binding, displacement of [125I]-iodosulpiride; settings: membranes from HEK-293 cells with stably expressed human D3 receptors, 0.1 nM [125I]-iodosulpiride
T1 construct: expressed in transfected cells
Procedure: (§1) The substance to be tested was dissolved either in methanol/Chremophor® (BASF-AG) or in dimethyl sulfoxide and then diluted with water to the desired concentration.
(§2) Triplicate mixtures were carried out.
The incubation buffer comprised 50 mM Tris, 120 mM NaCl, 5 mM KCl, 2 mM CaCl2, 2 mM MgCl2 and 0.1% bovine serum albumin, 10 μM quinolone, 0.1% ascorbic acid (prepared fresh each day). The buffer was adjusted to pH 7.4 with HCl.
(§3) III. Measurement and Evaluation:
(§4) After incubation at 25° C. for 60 minutes, the mixtures were filtered under vacuum through Whatman GF/B glass fiber filters using a cell harvester. The filters were transferred by a filter transfer system into scintillation vials. After addition of 4 ml of Ultima Gold® (Packard), the samples were shaken for one hour and then the radioactivity was counted in a beta counter (Packard, Tricarb 2000 or 2200CA). The cp values were converted into dpm by means of a standard quench series with the aid of the instrument's own program.
(§5) Evaluation of the inhibition plots took place by iterative nonlinear regression analysis using the Statistical Analysis System (SAS) similar to the “LIGAND” program described by Munson and Rodbard.

[2] = molecular target: T2, human dopamine D2L receptors (long isoform) (Homo sapiens, UniProt P14416); test: Dopamine D2L receptor binding, displacement of [125I]-iodospiperone; settings: ratio Ki(D2L)/Ki(D3); HEK-293 membranes
T2 construct: expressed in transfected cells
T2 sequence (P14416 whole entry, canonical isoform): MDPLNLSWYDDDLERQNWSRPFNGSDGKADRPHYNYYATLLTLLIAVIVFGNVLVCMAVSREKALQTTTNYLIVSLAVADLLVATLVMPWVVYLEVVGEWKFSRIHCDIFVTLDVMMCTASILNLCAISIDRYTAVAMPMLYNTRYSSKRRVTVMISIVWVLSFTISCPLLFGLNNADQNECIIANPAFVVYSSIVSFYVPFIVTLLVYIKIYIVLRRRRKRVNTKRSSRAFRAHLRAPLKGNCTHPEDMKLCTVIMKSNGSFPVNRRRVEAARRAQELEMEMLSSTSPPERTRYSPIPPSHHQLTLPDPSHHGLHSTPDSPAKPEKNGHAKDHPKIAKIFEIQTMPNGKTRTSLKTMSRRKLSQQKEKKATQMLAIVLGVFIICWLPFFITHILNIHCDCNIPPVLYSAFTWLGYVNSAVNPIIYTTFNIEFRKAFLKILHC
Procedure: as §1
II. Dopamine D2L Receptor:
as §2
The incubation buffer comprised 50 mM Tris, 120 mM NaCl, 5 mM KCl, 2 mM CaCl2, 2 mM MgCl2 and 0.1% bovine serum albumin. The buffer was adjusted to pH 7.4 with HCl.
as §3, §4, §5

T1 sequence (P35462 whole entry): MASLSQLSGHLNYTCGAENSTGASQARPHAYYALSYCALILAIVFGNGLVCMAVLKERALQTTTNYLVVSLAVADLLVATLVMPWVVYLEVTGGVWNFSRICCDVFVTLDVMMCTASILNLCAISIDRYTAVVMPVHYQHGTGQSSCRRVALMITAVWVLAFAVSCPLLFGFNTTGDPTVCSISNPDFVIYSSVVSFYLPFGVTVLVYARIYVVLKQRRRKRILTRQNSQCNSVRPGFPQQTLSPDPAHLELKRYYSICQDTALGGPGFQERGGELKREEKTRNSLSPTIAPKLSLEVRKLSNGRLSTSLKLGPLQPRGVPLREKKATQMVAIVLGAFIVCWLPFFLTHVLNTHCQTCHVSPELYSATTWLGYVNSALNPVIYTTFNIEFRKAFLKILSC

Row | SMILES | Ki [1] [nM] | Selectivity vs. D2L (Ki(D2L)/Ki(D3)) [2]
1 | CC(C)(C)c1nc(C(F)F)cc(N2CCN(CCCCN3C(=O)CCc4c(O)cccc43)CC2)n1 [Example 36, 1-(4-{4-[2-tert-Butyl-6-(difluoromethyl)pyrimidin-4-yl]piperazin-1-yl}butyl)-5-hydroxy-3,4-dihydroquinolin-2(1H)-one] | 1.18 | 41
2 | CCCc1cc(N2CCN(CCCCN3C(=O)CCc4ccccc43)CC2)nc(C(C)(C)C)n1 [Example 37, 1-{4-[4-(2-tert-Butyl-6-propylpyrimidin-4-yl)piperazin-1-yl]butyl}-3,4-dihydroquinolin-2(1H)-one] | 1.59 | 38
3 | CC(C)(C)c1nc(N2CCN(CCCN3C(=O)COc4ccccc43)CC2)cc(C(F)(F)F)n1 [Example 2, 4-(3-{4-[2-tert-Butyl-6-(trifluoromethyl)pyrimidin-4-yl]piperazin-1-yl}propyl)-2H-1,4-benzoxazin-3(4H)-one] | 12.1 | 29
4 | CCCc1cc(N2CCN(CCCCN3C(=O)CCc4c(OC)cccc43)CC2)nc(C(C)(C)C)n1 [Example 33, 1-{4-[4-(2-tert-Butyl-6-propylpyrimidin-4-yl)piperazin-1-yl]butyl}-5-methoxy-3,4-dihydroquinolin-2(1H)-one] | 1.71 | 65
5 | CC(C)(C)c1nc(N2CCN(CCCN3C(=O)CCc4ccccc43)CC2)cc(C(F)(F)F)n1.Cl [Example 1, 1-[2-tert-Butyl-6-(trifluoromethyl)pyrimidin-4-yl]-4-[3-(2-oxo-3,4-dihydroquinolin-1(2H)-yl)propyl]piperazin-4-ium chloride] | 3.43 | 37
6 | CCCc1cc(N2CCN(CCCCN3C(=O)CCCc4c(O)cccc43)CC2)nc(C(C)(C)C)n1 [Example 56, 4-(2-tert-butyl-6-propyl-pyrimidin-4-yl)-1-[4-(6-hydroxy-2-oxo-2,3,4,5-tetrahydro-benzo[b]azepin-1-yl)butyl]piperazine] | 0.69 | 26
7 | CC(C)(C)c1nc(N2CCN(C/C=C/CN3C(=O)CCc4ccccc43)CC2)cc(C(F)(F)F)n1 [Example 10, 1-((2E)-4-{4-[2-tert-Butyl-6-(trifluoromethyl)pyrimidin-4-yl]piperazin-1-yl}but-2-enyl)-3,4-dihydroquinolin-2(1H)-one] | 9.2 | –
8 | CCCc1cc(N2CCN(CCCCN3C(=O)CCC4=C3CCCC4=O)CC2)nc(C(C)(C)C)n1 [Example 44, 1-{4-[4-(2-tert-Butyl-6-propyl-pyrimidin-4-yl)piperazin-1-yl]butyl}-4,6,7,8-tetrahydro-1H,3H-quinoline-2,5-dione] | 1.54 | 29
9 | CCCc1cc(N2CCN(CCCCN3C(=O)CCCc4c(OC)cccc43)CC2)nc(C(C)(C)C)n1 [Example 54, 1-{4-[4-(2-tert-Butyl-6-propyl-pyrimidin-4-yl)piperazin-1-yl]butyl}-6-methoxy-1,3,4,5-tetrahydro-benzo[b]azepin-2-one] | 2.25 | 25
10 | CC(C)(C)c1nc(N2CCN(CCCCN3C(=O)CCC4=C3CCCC4=O)CC2)cc(C(F)(F)F)n1 [Example 45, 1-{4-[4-(2-tert-Butyl-6-trifluoromethyl-pyrimidin-4-yl)piperazin-1-yl]butyl}-4,6,7,8-tetrahydro-1H,3H-quinoline-2,5-dione] | 4.68 | 41
